# From PubChem BioAssay (NCI)
#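 Exposure lasted 48 hours, with cells grown in 96-well plates and compounds tested at five concentrations. GI50 = concentration required for 50% inhibition of growth. The concentration for full growth arrest is given as TGI.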
# Legend:
# Assay in all cases: DTP human tumour cell line panel, 48 h
# [1] = test system: SF-268 CNS
# [2] = test system: DU-145 prostate
# [3] = test system: CAKI-1 renal
# [4] = test system: BT-549 breast
# [5] = test system: MDA-MB-435
# [6] = test system: OVCAR-4 ovarian
# [7] = test system: MCF7 breast
# [8] = test system: A498 renal
# [9] = test system: COLO 205 colon
# [10] = test system: KM12 colon
SMILES,GI50 [1] [µM],TGI [1] [µM],GI50 [2] [µM],TGI [2] [µM],GI50 [3] [µM],TGI [3] [µM],GI50 [4] [µM],TGI [4] [µM],GI50 [5] [µM],TGI [5] [µM],GI50 [6] [µM],TGI [6] [µM],GI50 [7] [µM],TGI [7] [µM],GI50 [8] [µM],TGI [8] [µM],GI50 [9] [µM],TGI [9] [µM],GI50 [10] [µM],TGI [10] [µM]
Cc1nc2sc(C(=O)Nc3cccc(Br)c3C)c(N)c2cc1C(O)c1ccccc1 (stereo unspecified),0.146,13,0.0422,5.16,0.0601,6.63,0.044,2.93,0.0198,0.0552,0.147,> 70.5,0.0373,13.1,0.0181,0.058,0.0464,1.07,0.0373,4.76
CC1(C)C(N2CCOCC2)CS1(=O)=O (stereo unspecified),,> 10,,> 10,,> 10,,> 10,,> 10,,> 10,,> 10,,> 10,,> 10,,> 10
C[C@]12CC[C@H](O[C@@H]3O[C@H](CO[C@@H]4O[C@H](CO)[C@@H](O)[C@H](O)[C@H]4O)[C@@H](O)[C@H](O)[C@H]3O)C[C@@H]1CC[C@@H]1[C@@H]2CC[C@]2(C)[C@@H](C3=CC(=O)OC3)CC[C@]12O,,29.5,,26.4,,> 58.9,,21.5,,> 100,,57.8,,,,70,,> 76.9,,> 100
CN(C)c1ccc(/C=C(\C#N)c2cc3ccccc3[nH]2)cc1,2.52,> 100,3.41,35.4,1.6,> 100,3.86,> 100,0.228,0.641,3.75,> 100,0.416,> 100,0.391,6.61,0.566,7.39,0.495,> 100
Brc1ccccc2cc(-c3ccccc3)nc1-2,,28.7,,> 63.3,,44.7,,56.5,,> 61,,19.8,,64.8,,42.7,,15.8,,32.8
NS(=O)(=O)c1ccc(N=Nc2ccc[nH]c2=O)cc1,,> 100,,> 100,,> 100,,> 100,,> 100,,> 100,,> 100,,> 100,,> 100,,> 100
CCOC(=O)C1=C(C)NC(=O)NC1c1ccc(OC)cc1OC (stereo unspecified),,> 100,,,,> 100,,,,,,,,,,> 100,,> 100,,> 100
NC(=O)c1c(NC(=O)c2cccs2)sc2c1CCC(=O)C2,3.21,> 100,4.13,> 100,2.65,> 100,2.08,8.41,2.95,10.6,0.761,2.75,2.48,18.7,6,52.9,,,2.18,9.52
C=CCCCCCCCCCP(=O)(c1ccccc1)c1ccc2c(c1)OCCOCCOCCOCCO2 (stereo unspecified),,29.5,,,,> 100,,,,,,24.8,,,,27.7,,31,,25.4
C[P+]1(Cc2ccccc2)CCCC1,,,,,,,,,,,,,,,,> 100,,> 100,,> 100
CC(=O)[CH-]C(=O)c1ccccc1.CC(=O)[CH-]C(=O)c1ccccc1.Cl.[O-]c1ccnc2ccccc12.[O-]c1ccnc2ccccc12.[Ti+4],> 100,> 100,,,48.7,> 100,,,,,> 100,> 100,,,> 100,> 100,> 100,> 100,> 100,> 100
Oc1ccc2c(=S)cc(-c3ccc(Br)cc3)oc2c1O,2.18,> 100,2.67,> 100,2.65,15.5,2.19,14.6,2.98,> 100,2.03,> 100,,,2.15,7.46,10.7,24.5,3.35,25.6
c1ccc(C2=NOC3C4CCC(C4)C23)cc1 (stereo unspecified),,> 100,,,,> 100,,,,,,> 100,,,,> 100,,> 100,,> 100
O=C1c2ccccc2C(=O)N1CCCOCc1c[nH]c(=O)[nH]c1=O,,> 100,,,,> 100,,,,,,> 100,,,,> 100,,> 100,,> 100
CC(=Nc1ccc(N(C)C)cc1)c1ccccc1,,,,> 100,,34,,33.2,,,,40.8,,46.9,,> 100,,34.9,,> 100
COc1cccc(NC(=O)CSc2nnc(Cc3ccccc3)o2)c1,,> 100,,,,> 100,,,,,,> 100,,,,> 100,,> 100,,> 100
CN(C)NC1=C([N+](=O)[O-])C=NN(c2ccccc2)C1,,3.51,,,,3.64,,,,,,3.22,,,,36,,3.27,,11.9
C=C1C(=O)O[C@H](c2ccoc2)C[C@@H]1[C@@]1(C)CCCC2(C)C(=O)OCC21 (stereo partly specified),,> 100,,,,> 100,,,,,,> 100,,,,> 100,,> 100,,> 100
CN(c1ccccc1)c1cc2ccccc2nn1,,> 100,,,,> 100,,,,,,> 100,,,,> 100,,> 100,,> 100
Cc1cccc(C)c1NC(=O)CCC(=O)NC(N)=NC#N,,> 100,,,,> 100,,,,,,> 100,,,,> 100,,> 100,,> 100
COC(=O)c1c[nH]c2cc(OC(C)C)c(OC(C)C)cc2c1=O,> 100,> 100,> 100,> 100,> 100,> 100,> 100,> 100,> 100,> 100,,,> 100,> 100,> 100,> 100,> 100,> 100,> 100,> 100
C=C1C(=O)O[C@H]2[C@H]1CC/C(COC(=O)c1cccnc1N)=C\CC[C@@]1(C)O[C@@H]21,3.54,16.5,2.45,12.7,,,2.17,5.6,2.58,12,2.08,19.4,0.553,14.6,2.56,7.27,1.77,3.68,3.19,11.8

SMILES,GI50 [1] [µM],TGI [1] [µM],GI50 [2] [µM],TGI [2] [µM],GI50 [3] [µM],TGI [3] [µM],GI50 [4] [µM],TGI [4] [µM],GI50 [5] [µM],TGI [5] [µM],GI50 [6] [µM],TGI [6] [µM],GI50 [7] [µM],TGI [7] [µM],GI50 [8] [µM],TGI [8] [µM],GI50 [9] [µM],TGI [9] [µM],GI50 [10] [µM],TGI [10] [µM]
CN(C)NC(=O)/C(=C/c1ccc(Cl)cc1)NC(=O)c1ccccc1,,> 100,,,,> 100,,,,,,> 100,,,,> 100,,> 100,,> 100
CC1OC(n2cc(C(F)(F)F)c(=O)[nH]c2=O)C=CC1=O (stereo unspecified),,> 100,,,,,,,,,,26.8,,,,,,35.2,,38.1
COc1ccc(CN2C(=O)[C@@H]3Cc4c(OC)c(C)c(OC)c(OC)c4[C@H](/C2=C\c2cc(OC)c(OC)c(C)c2OC)N3C(=O)OC(C)C)cc1,,> 100,,,,> 100,,,,,,> 100,,,,> 100,,> 100,,> 100
CC(=O)OCC1OC(n2cccnc2=O)C(OC(C)=O)C1OC(C)=O (stereo unspecified),,> 100,,,,> 100,,,,,,> 100,,,,> 100,,> 100,,> 100
COC(=O)C1=CC2C(=O)OC1C1C(=O)NC(=O)C21 (stereo unspecified),,> 100,,,,> 100,,,,,,> 100,,,,> 100,,> 100,,> 100
O=S(=O)(NC1=NCCN1C(=S)SN1CCn2c1nsc2=S)c1ccc(Oc2ccccc2)cc1,57.3,> 100,31.7,> 100,> 100,> 100,,,30.4,> 100,79.1,> 100,25.7,> 100,34.2,97,> 100,> 100,39.7,> 100
CCC12C=CCN(CCc3c([nH]c4ccccc34)/C=C\1)C2 (stereo unspecified),,> 100,,,,> 100,,,,,,> 100,,,,> 100,,> 100,,> 100
O=C(NC1CC1)c1c(O)[nH]c(=S)[nH]c1=O,,> 100,,,,> 100,,,,,,> 100,,,,> 100,,> 100,,> 100
CC1(C)c2ccccc2N2C(c3ccccc3)=NOC21C (stereo unspecified),,> 100,,,,> 100,,,,,,> 100,,,,> 100,,> 100,,> 100
CCOC(=O)c1cc(=O)n(C)c(=O)n1C,,> 100,,,,> 100,,,,,,> 100,,,,> 100,,> 100,,> 100
O=c1nc2sc3ccccc3c(=O)n2[nH]1,,> 100,,,,> 100,,,,,,> 100,,,,,,> 100,,> 100
O=C(O)c1ccc2c(c1)C(=O)N(c1ccc(S(=O)(=O)c3ccc(N4C(=O)c5ccc(C(=O)O)cc5C4=O)cc3)cc1)C2=O,,> 100,,,,> 100,,,,,,> 100,,,,> 100,,> 100,,> 100
O=C(Oc1ccccc1)N(c1ccccc1)c1ccccc1,33.1,> 100,42.9,> 100,12.1,37.6,18.2,41.2,24.4,75.9,25.1,> 100,,,10.4,62.7,19.5,44.7,28.7,> 100
Nc1ccccc1C#C/C=C\C#Cc1ccccc1C#CCO,7.6,24.3,15.8,> 50,4.1,18,10.9,41.6,1.51,4.21,14,41.4,7.87,> 50,,,11.8,31.6,1.81,7.8
COC(=O)c1c(O)ccc(O)c1C(C(C)=O)C(C)=O,,> 100,,,,> 100,,,,,,> 100,,,,> 100,,> 100,,> 100
Cc1ccccc1NC(=O)Cc1nc2ccccc2s1,,33,,,,36.8,,,,,,32.5,,,,35.7,,> 100,,31.3
Cc1ccc(S(=O)(=O)OCOS(=O)(=O)c2ccc(C)cc2)cc1,,> 100,,,,,,,,,,,,,,,,> 100,,> 100
Cn1ncc(C#N)c1-c1ccc2c(c1)CN([C@H](CN)Cc1cccc(F)c1)C2=O,20.1,> 100,21.3,> 100,,,0.477,12.1,7.56,> 67.7,23.1,> 100,0.812,25.4,0.157,1.39,1.85,21,0.711,> 100
CC[C@@H](C)/C=C(C)/C=C/C(=O)c1c(O)c(-c2ccc(OC(=O)[C@@]34CC[C@@](C)(C(=O)O3)C4(C)C)cc2)cn(O)c1=O,0.888,6.6,0.839,> 50,1.6,11.9,,,2.46,> 50,1.23,> 50,1.82,> 50,5.6,> 50,15.2,> 50,3.85,> 50
O=C(/C=C/c1ccc(Cl)c(Cl)c1)c1ccccc1Cl,,13.9,,,,24.2,,,,,,27.9,,,,31.4,,30.6,,20.9
Cc1ccc2c(c1)-c1c3c(nn1C)-c1ccccc1SC3O2 (stereo unspecified),,> 100,,,,,,,,,,,,,,> 100,,> 100,,> 100
CC(=O)OC1CCC2OOC1O2 (stereo unspecified),,> 100,,,,> 100,,,,,,> 100,,,,> 100,,> 100,,> 100
